Test results as given in the supplement of paper PMC10307832.

Experiments:
Test in all cases: relative viability (nuclei count vs DMSO), 5 days (fraction); higher = more cells survive
[1] = system: NCI-H1437
In short: (§1)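 Medians of duplicate plates are given as relative viability. That measure is the nuclei count in treated wells divided by the count in vehicle wells. Counts were taken on 4× images of lung cancer cell lines in 1536-well plates, 5 days after pin-tool dosing the day after seeding with one drug alone or a fixed anchor-drug dose plus five library-drug doses (not always all listed) in √10 steps.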

[2] = system: CAL-12T
In short: as §1

[3] = system: NCI-H460
In short: as §1

[4] = system: NCI-H1755
In short: as §1

[5] = system: EMC-BAC-2
In short: as §1

[6] = system: LCLC-103H
In short: as §1

[7] = system: HCC-366
In short: as §1

[8] = system: NCI-H727
In short: as §1

[9] = system: NCI-H2009
In short: as §1

[10] = system: NCI-H2228
In short: as §1

[11] = system: SK-LU-1
In short: as §1

[12] = system: NCI-H1915
In short: as §1

[13] = system: NCI-H23
In short: as §1

[14] = system: HOP-62
In short: as §1

[15] = system: NCI-H1355
In short: as §1

[16] = system: SW 1573
In short: as §1

[17] = system: HCC-827
In short: as §1

[18] = system: NCI-H1975
In short: as §1

[19] = system: A-427
In short: as §1

[20] = system: NCI-H1792
In short: as §1

[21] = system: COR-L 105
In short: as §1

[22] = system: HARA
In short: as §1

Compound `Clc1ccc(Nc2nnc(Cc3ccncc3)c3ccccc23)cc1` [Vatalanib] + CC(C)C[C@H](NC(=O)[C@H](Cc1ccccc1)NC(=O)c1cnccn1)B(O)O [Bortezomib] (partner 0.002 µM) has a relative viability ([1]; first compound 0.04 µM) of 0.57, a relative viability ([1]; first compound 0.1265 µM) of 0.577 and a relative viability ([1]; first compound 0.4 µM) of 0.507. It also gave a relative viability ([1]; first compound 1.265 µM) of 0.445, a relative viability ([1]; first compound 4 µM) of 0.495 and a relative viability ([2]; first compound 0.04 µM) of 0.933. The relative viability ([2]; first compound 0.1265 µM) was 0.774, the relative viability ([2]; first compound 1.265 µM) was 0.988 and the relative viability ([2]; first compound 4 µM) was 1.05. For the same compound, the relative viability ([3]; first compound 0.04 µM) was 1.07, the relative viability ([3]; first compound 0.1265 µM) was 0.919 and the relative viability ([3]; first compound 0.4 µM) was 1.03. The relative viability ([3]; first compound 1.265 µM) was 1.03, the relative viability ([3]; first compound 4 µM) was 1.02 and the relative viability ([4]; first compound 0.04 µM) was 0.938. For the same compound, the relative viability ([4]; first compound 0.1265 µM) was 0.926, the relative viability ([4]; first compound 0.4 µM) was 0.992 and the relative viability ([4]; first compound 1.265 µM) was 0.88. It also gave a relative viability ([4]; first compound 4 µM) of 0.974, a relative viability ([5]; first compound 0.04 µM) of 1.04 and a relative viability ([5]; first compound 0.1265 µM) of 1.09. It also gave a relative viability ([5]; first compound 0.4 µM) of 1.12, a relative viability ([5]; first compound 1.265 µM) of 1.01 and a relative viability ([5]; first compound 4 µM) of 1.05. It also gave a relative viability ([6]; first compound 0.04 µM) of 1.07, a relative viability ([6]; first compound 0.1265 µM) of 1.12 and a relative viability ([6]; first compound 0.4 µM) of 1.07. The relative viability ([6]; first compound 1.265 µM) was 1.01, the relative viability ([6]; first compound 4 µM) was 1.13 and the relative viability ([7]; first compound 0.04 µM) was 1.09. For the same compound, the relative viability ([7]; first compound 0.1265 µM) was 0.924, the relative viability ([7]; first compound 0.4 µM) was 1.03 and the relative viability ([7]; first compound 1.265 µM) was 1.06. The relative viability ([7]; first compound 4 µM) was 1.05, the relative viability ([8]; first compound 0.04 µM) was 0.908 and the relative viability ([8]; first compound 0.1265 µM) was 0.776. The relative viability ([8]; first compound 0.4 µM) was 0.827, the relative viability ([8]; first compound 1.265 µM) was 0.854 and the relative viability ([8]; first compound 4 µM) was 0.706. It also gave a relative viability ([9]; first compound 0.04 µM) of 1.19, a relative viability ([9]; first compound 0.1265 µM) of 0.891 and a relative viability ([9]; first compound 0.4 µM) of 1.14. For the same compound, the relative viability ([9]; first compound 1.265 µM) was 0.949, the relative viability ([9]; first compound 4 µM) was 0.984 and the relative viability ([10]; first compound 0.04 µM) was 0.865. For the same compound, the relative viability ([10]; first compound 0.1265 µM) was 0.803, the relative viability ([10]; first compound 0.4 µM) was 0.94 and the relative viability ([10]; first compound 1.265 µM) was 0.951. The relative viability ([10]; first compound 4 µM) was 1.11, the relative viability ([11]; first compound 0.04 µM) was 1.25 and the relative viability ([11]; first compound 0.1265 µM) was 0.981. For the same compound, the relative viability ([11]; first compound 1.265 µM) was 1.19, the relative viability ([11]; first compound 4 µM) was 1.14 and the relative viability ([12]; first compound 0.04 µM) was 0.949. For the same compound, the relative viability ([12]; first compound 0.1265 µM) was 0.923, the relative viability ([12]; first compound 0.4 µM) was 0.993 and the relative viability ([12]; first compound 1.265 µM) was 0.936. The relative viability ([12]; first compound 4 µM) was 0.987, the relative viability ([13]; first compound 0.04 µM) was 0.846 and the relative viability ([13]; first compound 0.1265 µM) was 1.03. It also gave a relative viability ([13]; first compound 0.4 µM) of 1.14, a relative viability ([13]; first compound 1.265 µM) of 0.865 and a relative viability ([13]; first compound 4 µM) of 1.08. For the same compound, the relative viability ([14]; first compound 0.04 µM) was 0.977, the relative viability ([14]; first compound 0.4 µM) was 0.857 and the relative viability ([14]; first compound 1.265 µM) was 0.849. It also gave a relative viability ([14]; first compound 4 µM) of 1.09, a relative viability ([15]; first compound 0.04 µM) of 1.18 and a relative viability ([15]; first compound 0.1265 µM) of 1.22. It also gave a relative viability ([15]; first compound 0.4 µM) of 1.21, a relative viability ([15]; first compound 1.265 µM) of 1.09 and a relative viability ([15]; first compound 4 µM) of 1.1. For the same compound, the relative viability ([16]; first compound 0.04 µM) was 1.15, the relative viability ([16]; first compound 0.1265 µM) was 0.96 and the relative viability ([16]; first compound 0.4 µM) was 1.21. It also gave a relative viability ([16]; first compound 1.265 µM) of 0.972, a relative viability ([16]; first compound 4 µM) of 1.09 and a relative viability ([17]; first compound 0.04 µM) of 1.04. For the same compound, the relative viability ([17]; first compound 0.1265 µM) was 0.877, the relative viability ([17]; first compound 0.4 µM) was 1.05 and the relative viability ([17]; first compound 1.265 µM) was 1.12. The relative viability ([17]; first compound 4 µM) was 1.03, the relative viability ([18]; first compound 0.04 µM) was 0.407 and the relative viability ([18]; first compound 0.1265 µM) was 0.352. For the same compound, the relative viability ([18]; first compound 0.4 µM) was 0.422, the relative viability ([18]; first compound 1.265 µM) was 0.374 and the relative viability ([18]; first compound 4 µM) was 0.379. The relative viability ([19]; first compound 0.04 µM) was 0.965, the relative viability ([19]; first compound 0.1265 µM) was 0.926 and the relative viability ([19]; first compound 0.4 µM) was 0.96. The relative viability ([19]; first compound 1.265 µM) was 0.941, the relative viability ([19]; first compound 4 µM) was 0.997 and the relative viability ([20]; first compound 0.04 µM) was 0.946. The relative viability ([20]; first compound 0.1265 µM) was 0.9, the relative viability ([20]; first compound 0.4 µM) was 0.915 and the relative viability ([20]; first compound 1.265 µM) was 0.921. It also gave a relative viability ([20]; first compound 4 µM) of 0.972, a relative viability ([21]; first compound 0.04 µM) of 0.941 and a relative viability ([21]; first compound 0.1265 µM) of 0.783. The relative viability ([21]; first compound 0.4 µM) was 0.931, the relative viability ([21]; first compound 1.265 µM) was 0.713 and the relative viability ([21]; first compound 4 µM) was 0.651. For the same compound, the relative viability ([22]; first compound 0.04 µM) was 0.71, the relative viability ([22]; first compound 0.1265 µM) was 0.953 and the relative viability ([22]; first compound 0.4 µM) was 1.23. The relative viability ([22]; first compound 1.265 µM) was 1.12 and the relative viability ([22]; first compound 4 µM) was 1.06.
